Molecular target: T1, MtBgl85 (Microbulbifer thermotolerans, UniProt Z9ZKX7DI54)
T1 construct: signal peptide (1-25, predicted) removed; N-terminal His6 tag (pCold I); expressed in E. coli BL21 (DE3); precursor 772 residues, mature 747 residues, 81,924 Da; about 85 kDa on SDS-PAGE; monomer
T1 sequence (Z9ZKX7DI54 26-772): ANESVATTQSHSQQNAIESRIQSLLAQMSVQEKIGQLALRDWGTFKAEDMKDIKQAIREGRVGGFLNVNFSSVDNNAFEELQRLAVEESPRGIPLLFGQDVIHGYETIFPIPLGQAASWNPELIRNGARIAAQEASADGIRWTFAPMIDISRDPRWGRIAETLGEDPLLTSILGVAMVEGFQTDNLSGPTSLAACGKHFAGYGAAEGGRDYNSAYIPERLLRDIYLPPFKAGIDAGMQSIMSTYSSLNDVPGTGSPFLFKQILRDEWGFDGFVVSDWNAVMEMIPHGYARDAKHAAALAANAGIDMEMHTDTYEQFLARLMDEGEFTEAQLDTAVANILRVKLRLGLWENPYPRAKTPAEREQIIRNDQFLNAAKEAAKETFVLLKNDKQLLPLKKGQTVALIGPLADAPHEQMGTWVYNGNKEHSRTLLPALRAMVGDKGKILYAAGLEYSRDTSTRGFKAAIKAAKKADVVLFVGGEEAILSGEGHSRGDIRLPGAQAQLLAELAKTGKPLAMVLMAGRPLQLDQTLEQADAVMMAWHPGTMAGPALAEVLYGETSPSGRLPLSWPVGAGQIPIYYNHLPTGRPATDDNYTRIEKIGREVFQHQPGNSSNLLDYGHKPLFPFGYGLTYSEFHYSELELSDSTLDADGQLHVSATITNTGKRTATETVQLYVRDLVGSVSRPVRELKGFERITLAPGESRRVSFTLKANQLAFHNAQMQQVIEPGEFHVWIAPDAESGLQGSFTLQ
Experiment: residual activity with pNPβG
Type: biochemical
Conditions: read-out: % residual activity at 10 mM

`OC[C@H]1OC(O)[C@H](O)[C@@H](O)[C@@H]1O` (stereo partly shown) [glucose] gave a remaining activity at 10000 µM of 59%.
